Measured values from patent US12414960B2, “Analogues of oleuropein and oleacein and uses thereof” (Attica Sciences Ltd., priority 2020, dated 2025).
“Also recorded” adds a separate entry of the source.

Columns and labels:
IL-1β = assay: ELISA of IL-1β in PMA/LPS-treated THP-1 cells; format: cell-based, human; details: THP-1, PMA then LPS 100 ng/ml 24 hours, 5 uM compound added 2 hours before LPS
Description: (§1) Human monocytes (THP-1, ATCC) were cultured in RPMI 1640 media supplemented with HEPES buffer (10 mM), sodium pyruvate (1 mM), glucose (4.5 g/L), fetal bovine serum (10%), penicillin (100 U/mL), streptomycin (100 μg/mL), and 2-mercaptoethanol (0.05 mM). THP-1 cells were treated with PMA (100 ng/ml) for 48 hours and then washed and rested for 24 hours in PMA-free media. These cells were treated with LPS (100 ng/ml) for 24 hours in the presence or absence of 5 uM of […] compounds (added 2 hours before LPS). Cell culture supernatants were collected and IL-1β (cat. No DLB50, R&D Systems), TNF-α (cat. no. DTA00D, R&D Systems) and IL-6 (cat. No D6050, R&D Systems) protein levels were evaluated by ELISA assay.

TNF-α = assay: ELISA of TNF-α in PMA/LPS-treated THP-1 cells; format: cell-based, human; details: THP-1, PMA then LPS 100 ng/ml 24 hours, 5 uM compound added 2 hours before LPS
Description: as §1

IL-6 = assay: ELISA of IL-6 in PMA/LPS-treated THP-1 cells; format: cell-based, human; details: THP-1, PMA then LPS 100 ng/ml 24 hours, 5 uM compound added 2 hours before LPS
Description: as §1

Raw 264.7 cells = assay: Raw 264.7 macrophage cell growth (trypan blue count); format: cell-based, BALB/C mice; details: 1, 10, 25, 50, 100, 200 μM, 24 h
Description: The effect of GS27 on the growth of Raw 264.7 cells was evaluated to examine GS27 potential toxicity effects. RAW 264.7 cells are macrophage-like Abelson leukemia virus transformed cell line derived from BALB/C mice. The cell line was obtained from ATCC.
RAW 264.7 cells were maintained at 37° C., in a 5% CO2 and 100% humidity incubator and grown in suspension, in non-adherent flasks, in RPMI 1640-Glutamax to which was added 50 U/mL of penicillin, 50 μg/mL streptomycin and 10% (v/v) fetal bovine serum (FBS). These cells were exposed to increasing doses of GS27 (1, 10, 25, 50, 100, 200 μM) for 24 h and after the exposure period, the cells were harvested with trypsin-EDTA and trypan blue was applied to the cell suspension. Non-colored and blue cells were counted while using an automated cell counter.

[1] = tested on: C4-2 castration-resistant prostate cells; assay: C4-2 castration-resistant prostate cancer cell growth; format: cell-based; details: 72 hours, androgen-depleted conditions
Description: The effect of GS27 on castration-resistant prostate cancer cells was evaluated, alone and in combination with enzalutamide (ENZ). Enzalutamide (XTANDI; Astellas Pharma), is an androgen receptor inhibitor used for treatment of patients with prostate cancer. In a further study, the effect of G27 in combination with ENZ on castration-resistant prostate cancer cells was compared to combination treatment of NDI-091143 with ENZ.
C4-2 Castration-resistant prostate cells cultured in androgen-depleted conditions were treated with 1 μM of GS27, in the presence or absence of 10 μM of enzalutamide (ENZ) for 72 hours.
C4-2 castration-resistant prostate cells cultured in androgen-depleted conditions were treated with 1 μM of GS27 or NDI-091143, in the presence of 10 μM of enzalutamide (ENZ) for 72 hours.

HepG2 liver cancer tumor = assay: HepG2 xenograft mouse model; format: in vivo, nu/nu mice; details: 20 mg/kg i.p. every 5 days, until 20 days post-treatment
Description: The effect of GS27 on liver cancer tumor growth in mice was evaluated in a HepG2 xenograft mouse model. HepG2 is a human liver cancer cell line, obtained from ATCC (cat. No HB-8065). Since hepatocellular carcinoma is often treated with the chemotherapeutic agent doxorubicin and embolization, results were compared to those obtained with doxorubicin.
Xenograft tumors were generated by injecting HepG2 liver cancer cells (2.5×10^6) into the right flank of female nu/nu mice (Charles River Laboratories). All mice developed tumors in 10 days with size of approximately 100 mm3. For each experiment, mice were randomly distributed into equal groups (4 mice per group) that were untreated, or treated by intraperitoneal injections every 5 days with 20 mg/kg GS27 or doxorubicin. Tumor volume (average, SD) was evaluated until 20 days post-treatment.

p65/NFKB (S536) = assay: ELISA of p65/NFKB (S536) in PANC-1 cells; format: cell-based, human; details: rIGF1, 5 μM, 24 hours
Description: (§2) ELISA assay was used to evaluate the effect of GS compounds on protein activity levels in PANC-1 cancer cells. PANC-1 cells were serum-starved overnight and then treated with rIGF1 (100 ng/mL) for 24 hours, with or without GS27 (5 μM). The levels of the following proteins were evaluated by ELISA assay: a) p70 S6 (T389) (cat no. 54164C, Cell Signaling); b) pAKT (S473), (cat no. 80895, Cell Signaling); c) pACLY (S455), (cat no. okag1672, Avivasysbio); d) pAMPK (T172) (cat no. 7959C, Cell Signaling) and e) p65/NFKB (S536), (cat no. 7173, Cell Signaling).
(§3) PANC-1 is a human pancreatic ductal adenocarcinoma cell line derived from the carcinoma of a person.
(§4) The molecular mechanism of action of GS27, a compound that has exerted potent anti-cancer activity in different cancer cell lines including pancreatic cancer cells, was investigated. Oleacein has been implicated to have anti-inflammatory and metabolic effects, thus the potential effects of GS27 in different metabolic and inflammatory pathways were evaluated. Specifically, the protein levels of p70 S6 (T389), pAKT (S473), pACLY (S455), pAMPK (T172) and p65/NFKB (S536) were evaluated by ELISA assay in PANC-1 pancreatic cancer cells treated with 5 μM GS27. GS27 reduced p70 S6 and AKT phosphorylation levels, while it increased AMPK phosphorylation.

[2] = tested on: AsPC-1 pancreatic cancer tumor cells; assay: Nile red lipid content of AsPC-1 xenograft tumors; format: in vivo, mice; details: 100 mg/kg i.p., tumors collected 24 days post-treatment
Description: Tumors derived from the mice treated by intraperitoneal injection with GS27 at 100 mg/kg were collected 24 days post-treatment. The tumors were evaluated for their lipid content using the dye nile red as a fluorescent vital stain for the detection of intracellular lipid droplets by fluorescence microscopy and flow cytofluorometry, as described previously (Greenspan, Peter et al., J Cell Biol, 1985, 100(3):965-973). […] Quantification of the data is shown in the bar graph.

p70 S6 (T389) = assay: ELISA of p70 S6 (T389) in PANC-1 cells; format: cell-based, human; details: rIGF1, 5 μM, 24 hours
Description: as §2, §3, §4

pAMPK (T172) = assay: ELISA of pAMPK (T172) in PANC-1 cells; format: cell-based, human; details: rIGF1, 5 μM, 24 hours
Description: as §2, §3, §4

Compound | IL-1β protein levels (IL-1β) | TNF-α protein levels (TNF-α) | IL-6 protein levels (IL-6) | effect on Raw 264.7 cell growth (Raw 264.7 cells) | growth of C4-2 prostate cancer cells, combination with enzalutamide ([1]; 1 μM plus 10 μM enzalutamide) | growth of C4-2 prostate cancer cells, compound alone ([1]; 1 μM) | reduction in the tumor size, HepG2 liver cancer (HepG2 liver cancer tumor) | p65/NFKB activity (p65/NFKB (S536)) | reduction in the lipid content of AsPC-1 tumor cells [2] | p70 S6 phosphorylation levels (p70 S6 (T389)) | AMPK phosphorylation (pAMPK (T172))
C/C=C(/C=O)[C@@H](CC=O)CC(=O)OCCOc1ccccc1 [GS24, (3S,4E)-4-formyl-3-(2-oxoethyl)-4-hexenoic acid 2-phenoxyethyl ester] | more effectively reduced | reducing substantially | effective for reducing | – | – | – | – | – | – | – | –
C/C=C(/C=O)[C@@H](CC=O)CC(=O)SCCc1ccccc1 [GS27, S-phenethyl (3S,4E)-4-formyl-3-(2-oxoethyl)hex-4-enethioate] | – | – | – | no effect | substantial additive effect; also recorded: more effective than NDI-091143 and enzalutamide | inhibited the growth | 80% | inhibiting | 55% | reduced | increased
